Measured values taken from US10172549B2, “Methods of facilitating positioning of electrodes” (Cardionomic, Inc., priority 2016, dated 2019).

System: right ventricle contractility and left ventricle contractility
Experiment: Heartbeat-by-heartbeat correlation of right and left ventricle contractility after a change, max(dP/dt) from pressure sensors as surrogate for contractility
Type: in vivo, ovine
Conditions: after injection
Source text: The correlation was a heartbeat-by-heartbeat analysis. Pressure measurements, taken by a Millar catheter comprising a MEMS pressure sensor, in units of max(dP/dt) was used as a surrogate for contractility.
The first change, a dobutamine injection, provided a very high contractility increase greater than 500%. The average correlation between right ventricle contractility and left ventricle contractility was very good at 0.91, where 1.00 is a perfect correlation. Accordingly, if a subject is given a dobutamine injection, measuring changes to right ventricle contractility can provide accurate information about changes to left ventricle contractility. The first change was repeated three times.
The second change, calcium injection at 5 mL, provided a contractility increase of about 20%. […] The average correlation between right ventricle contractility and left ventricle contractility using a Millar (MEMS) sensor on a catheter was very good at 0.91. The average correlation between right ventricle contractility and left ventricle contractility using a fluid-filled lumen of a Swan-Ganz catheter in communication with an external pressure sensor was also very good at 0.87. Accordingly, under certain circumstances such as measurement of an animal (normal, non-HF ovine model) model, if a subject is given a calcium injection, measuring changes to right ventricle contractility with a MEMS sensor or a fluid filled lumen can provide accurate information about changes to left ventricle contractility.
The fourth change, neurostimulation as described herein, provided a contractility increase of about 28%. The correlation between right ventricle contractility and left ventricle contractility was very good at 0.90. Accordingly, if a subject is given neurostimulation, measuring changes to right ventricle contractility can provide accurate information about changes to left ventricle contractility. […] Thereafter, the left ventricle contractility tapered off logarithmically or exponentially, but the right ventricle contractility decreased very slowly. These differences help to show why the correlation between left ventricle contractility and right ventricle contractility are poorly correlated for calcium injections. The fourth change was not repeated.

Row | Compound | Contractility % Increase [%] | Contractility % Increase (listed as calcium injection) | Contractility % Increase (listed as dobutamine injection)
1 | calcium [Calcium Injection] | ~20 | about 20% | –
2 | CC(CCc1ccc(O)cc1)NCCc1ccc(O)c(O)c1 (stereo not shown) [Dobutamine Injection, dobutamine] | >500 | – | greater than 500%
